Test [1] concerns human neutrophilic leukocytes. Put plainly: Inhibition of superoxide radical (O2-) generation in FMLP-stimulated human neutrophilic leukocytes (ferricytochrome C method). Type of test: cell-based. To be noted: Homo sapiens, Leukocyte. The method, boiled down: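 Neutrophils were isolated from healthy adult blood by dextran-hypotonic treatment and Ficoll-Paque gradient. Compounds in DMSO were pre-incubated with the cells at 37° C before FMLP stimulation. O2− generation was measured by ferricytochrome C reduction.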

The subject of a further test is heart muscle. Put plainly: Inhibition of heart muscle necrosis in rat caused by clogging of the coronary artery and subsequent blood reperfusion (tissue CPK). Type of test: in vivo. Conditions: male SD rats; 6 mg/kg intravenously 5 minutes before ligature; ischemic area 2 hours after reperfusion; p < 0.05 vs control. The method, then: 1 (4) Activity for inhibiting the heart muscle necrosis in rat caused by clogging of the coronary artery and subsequent blood reperfusion
Male rats of SD strain (7-10 week old, 250-350 g) were used in this test. The activity of creatine phosphokinase (CPK) in tissue was used as an indication of heart muscle necrosis.
A test compound was dissolved in a small amount of 1N aqueous NaOH solution, then diluted with a physiological saline solution, and administered at a dose of 1 ml/kg of body weight. Each rat was anesthetized with pentobarbital and thoracotomized under artifical respiration; the descending branch before left coronary artery was ligated with a piece of silk string for 12 minutes; then, the blood was reperfused. Thereafter, the thoracotomized chest was closed and the rat was waken from anesthesia. 2 hours after reperfusion, the heart was enucleated under anesthesia; only the ischemic area was homogenized; and the activity of CPK contained therein was measured. The test compound was intravenously administered at a dose of 6 mg/kg 5 mintues before ligature of the coronary artery.
The results on the NaOH/physiological saline solution-administered group as a control and the compound-administered group are shown in Table 19.

By IC50 is commonly meant the concentration at which inhibition is half-maximal. Read a low IC50 as greater potency in that assay.

For `CCOc1ccc(-c2nc(-c3ccc(O)c(C(=O)O)c3)cs2)cc1OCC` [compound 62, 4-(3-Carboxy-4-hydroxyphenyl)-2-(3,4-diethoxy-phenyl)thiazole], the IC50 in test [1] (Table 16, comparative test present compounds vs prior art compounds, NE = not effective) worked out at 10 nM; in test [1] (pH 7.4, Table 15, O2- generation, 3x10^-7 M FMLP, cytochalasin B, 37° C., pH 7.4), 10 nM. For the same molecule, in the test on heart muscle, the “Activity of creatine phosphokinase in tissue, Mean ± S.E.” value is 19.53 ± 1.56 U/mg of protein.

The values above are taken from patent USRE37556E1, “Superoxide radical inhibitor” (Otsuka Pharmaceutical Co., Ltd., priority 1990, dated 2002).
